The source of these data is US20210267205A1, “METHOD OF CONTROLLING WEEDS” (SUMITOMO CHEMICAL COMPANY, LIMITED, priority 2018, published 2021).

What all share (type): in vivo
Assay [1] concerns Echinochloa crus-galli. In words: Herbicidal effect, soil spray the day after seeding, pot test (Example 1153). The conditions noted are these: 100 L per 10000 m^2, 30 PSI, 10 days in greenhouse, scale of 0 to 100. On the procedure: (§1) Echinochloa crus-galli was seeded on a plastic pot filled with a soil. On the next day, an aqueous diluted liquid of trifludimoxazin (prepared by diluting an emuslfiable concentrate of trifludimoxazin with water) was uniformly sprayed onto the pot through the nozzles given in Table 1 at the amount of the aqueous diluted liquid of 100 L per 10000 m^2 so that the application rate of trifludimoxazin might be 20 or 10 g per 10000 m^2. The spray pressure was 30 PSI and the spray height (distance between the nozzle outlet and the soil surface of the pot) was 60 cm. The air temperature was 17 degrees Celsius, the wind speed was 2.5 m/s, and the relative humidity was 65% at the timing of application. The sprayed pots were placed in a greenhouse for 10 days to grow Echinochloa crus-galli and then herbicidal effects were evaluated on scale of 0 to 100.

Assay [2] deals with Echinochloa crus-galli. Description: Herbicidal effect, soil spray the day after seeding, pot test (Example 1154). The conditions noted are these: 150 L per 10000 m^2, 30 PSI, 10 days in greenhouse, scale of 0 to 100. On the procedure: as §1, with “in Table 2 at the” for “in Table 1 at the”, “liquid of 150 L per” for “liquid of 100 L per”, “might be 30 or 15” for “might be 20 or 10”, “30 or 15 g per” for “20 or 10 g per”, “evaluated on a scale of” for “evaluated on scale of”

Assay [3] concerns Waterhemp having a Gly210 deletion mutation in PPO2. In words: Herbicidal effect, soil spray the day after seeding, pot test (Example 1156). The following applies: 15 g per 10000 m^2; 150 L per 10000 m^2; 30 PSI; 10 days in greenhouse; scale of 0 to 100. As for the experimental part:
as §1, with “Waterhemp having a Gly210 deletion mutation in PPO2 was seeded” for “Echinochloa crus-galli was seeded”, “in Table 4 at the” for “in Table 1 at the”, “liquid of 150 L per” for “liquid of 100 L per”, “might be 15 g per” for “might be 20 or 10 g per”, “to grow waterhemp and then” for “to grow Echinochloa crus-galli and then”, “evaluated on a scale of” for “evaluated on scale of”

Assay [4] shares this test system. In words: Herbicidal effect, soil spray the day after seeding, pot test (Example 1155). The conditions noted are these: 10 g per 10000 m^2; 100 L per 10000 m^2; 30 PSI; 10 days in greenhouse; scale of 0 to 100. As for the experimental part:
as §1, with “Waterhemp having a Gly210 deletion mutation in PPO2, was seeded” for “Echinochloa crus-galli was seeded”, “in Table 3 at the” for “in Table 1 at the”, “might be 10 g” for “might be 20 or 10 g”, “to grow waterhemp and then” for “to grow Echinochloa crus-galli and then”, “evaluated on a scale of” for “evaluated on scale of”

In assay [5] the test system is Amaranthus palmeri, waterhemp and ragweeds having mutations in PPO2. Description: Effect on weeds, soil surface application on day of sowing weeds and soybean (Example 2). The conditions noted are these: 10, 20, 40, 80, or 160 g/ha, 200 L/ha, drift-reducing nozzle TTI11004, examined after 21 days. The text has this: (§2) Amaranthus palmeri having an Arg128Gly mutation in PPO2, Amaranthus palmeri having an Arg128Met mutation in PPO2, Amaranthus palmeri having a Gly210 deletion mutation in PPO2, Amaranthus palmeri having a Gly399Ala mutation in PPO2, waterhemp having a Gly210 deletion mutation in PP02, ragweeds having Arg128Leu in PP02, and a Roundup Ready 2 Xtend soybean are sown in a plastic pot. On the same day, a compound X is applied to the surface of soil by using a drift-reducing nozzle (TTI11004 manufactured by Teejet Company). The amount of the compound X to be applied is 10, 20, 40, 80, or 160 g/ha and the amount of spray dilution is 200 L/ha. Then, the weeds and soybean are cultivated in a greenhouse to examine the effects on the weeds and phytotoxic effects on the soybean after 21 days.

Assay [6] shares this test system. Description: Effect on weeds, foliar treatment 21 days after sowing (Example 3). The conditions noted are these: 10, 20, 40, 80, or 160 g/ha, 200 L/ha, drift-reducing nozzle TTI11004, examined 14 days after treatment. The text has this: Amaranthus palmeri having an Arg128Gly mutation in PPO2, Amaranthus palmeri having an Arg128Met mutation in PPO2, Amaranthus palmeri having a Gly210 deletion mutation in PPO2, Amaranthus palmeri having a Gly399A1a mutation in PPO2, waterhemp having a Gly210 deletion mutation in PP02, ragweeds having Arg128Leu in PP02, and a Roundup Ready 2 Xtend soybean are sown in a plastic pot. Then, the weeds and soybean are cultivated in a greenhouse and a compound X is applied to perform foliar treatment by using a drift-reducing nozzle (TTI11004 manufactured by Teejet Company) 21 days after sowing. The amount of the compound X to be applied is 10, 20, 40, 80, or 160 g/ha and the amount of spray dilution is 200 L/ha. Then, the weeds and soybean are further cultivated in a greenhouse to examine the effects on the weeds and phytotoxic effects on the soybean 14 days after treatment.

Assay [7] shares this test system. In words: Effect on weeds, soil surface application on day of weed sowing, soybean sown after 7 days (Example 1). The conditions noted are these: 10, 20, 40, 80, or 160 g/ha, 200 L/ha, drift-reducing nozzle TTI11004, examined after 14 days.
Excerpt: as §2, with “in PPO2, and” for “in PP02,”, “in PPO2” for “in PP02, and a Roundup Ready 2 Xtend soybean”, “Then, these” for “Then, the”, “weeds” for “weeds and soybean”, “greenhouse and Roundup Ready 2 Xtend soybean seeds are sown after 7 days,” for “greenhouse”, “after 14” for “after 21”

In the case of `C#CCN1C(=O)C(F)(F)Oc2cc(F)c(-n3c(=O)n(C)c(=S)n(C)c3=O)cc21` [Trifludimoxazin, trifludimoxazin], in the assay on Echinochloa crus-galli [1] (10 g per 10000 m^2), the “Herbicidal effect on Echinochloa crus-galli, Air induction nozzle (TTI11002)” value worked out at 60 and the “Herbicidal effect on Echinochloa crus-galli, Standard nozzle (Teejet11002)” value was 20. Further, in the assay with Echinochloa crus-galli [1] (20 g per 10000 m^2), the “Herbicidal effect on Echinochloa crus-galli, Air induction nozzle (TTI11002)” value was 80 and the “Herbicidal effect on Echinochloa crus-galli, Standard nozzle (Teejet11002)” value is listed as 30. Further, in the assay with Echinochloa crus-galli [2] (15 g per 10000 m^2), the “Herbicidal effect on Echinochloa crus-galli, Air induction nozzle (TTI11004)” value was 70 and the “Herbicidal effect on Echinochloa crus-galli, Standard nozzle (Teejet11004)” value is given as 30. Moreover, in the assay with Echinochloa crus-galli [2] (30 g per 10000 m^2), the “Herbicidal effect on Echinochloa crus-galli, Air induction nozzle (TTI11004)” value is reported as 90 and the “Herbicidal effect on Echinochloa crus-galli, Standard nozzle (Teejet11004)” value is reported as 40. Moreover, in assay [3], the “Herbicidal effect on Waterhemp having a Gly210 deletion mutation in PPO2, Air induction nozzle (TTI11004)” value turned out to be 95 and the “Herbicidal effect on Waterhemp having a Gly210 deletion mutation in PPO2, Standard nozzle (Teejet11004)” value is 60. In addition, in assay [4], the “Herbicidal effect on Waterhemp having a Gly210 deletion mutation in PPO2, Air induction nozzle (TTI11002)” value was 90; the “Herbicidal effect on Waterhemp having a Gly210 deletion mutation in PPO2, Pre-orifice nozzle (DG11002)” value came out at 90; the “Herbicidal effect on Waterhemp having a Gly210 deletion mutation in PPO2, Standard nozzle (Teejet11002)” value was 50.

In the case of `CCOC(=O)COc1ncccc1Oc1cc(-n2c(=O)cc(C(F)(F)F)n(C)c2=O)c(F)cc1Cl` [compound X, Ethyl [3-[2-chloro-4-fluoro-5-(1-methyl-6-trifluoromethyl-2,4-dioxo-1,2,3,4-tetrahydropyrimidine-3-yl)phenoxy]-2-pyridyloxy]acetate], the “effects on the weeds” value in assay [5], in assay [6] and in assay [7] was “valuable effect” throughout.
